According to ChEMBL document CHEMBL3232786, “Therapeutic utility of cannabinoid receptor type 2 (CB(2)) selective agonists” (J Med Chem, 2013):

Assays:
Cannabinoid receptor 1 [1] = target: T1, Cannabinoid receptor 1 (Homo sapiens, UniProt P21554); assay: Agonist activity at human CB1 receptor assessed as inhibition of forskolin-induced cAMP production preincubated for 15 mins followed by forskolin challenge measured after 30 mins by HTRF assay; type: functional
Cannabinoid receptor 2 [2] = target: T2, Cannabinoid receptor 2 (Homo sapiens, UniProt P34972); assay: Agonist activity at human CB2 receptor assessed as inhibition of forskolin-induced cAMP production preincubated for 15 mins followed by forskolin challenge measured after 30 mins by HTRF assay; type: functional
Cannabinoid receptor 2 [3] = target: T2, Cannabinoid receptor 2; assay: Agonist activity at human CB2 receptor assessed as inhibition of forskolin-induced cAMP production preincubated for 15 mins followed by forskolin challenge measured after 30 mins by HTRF assay relative to control; type: functional
Homo sapiens = species on record: Homo sapiens; assay: Selectivity ratio of Ki for human CB1 receptor to Ki for human CB2 receptor
Cannabinoid receptor 2 [4] = target: T2, Cannabinoid receptor 2; assay: Displacement of [3H]Win55212-2 from human CB2 receptor expressed in CHO-K1 cells by liquid scintillation counting; type: cell-based
Cannabinoid receptor 1 [5] = target: T1, Cannabinoid receptor 1; assay: Displacement of [3H]-CP55940 from human CB1 receptor expressed in CHO-K1 cells by liquid scintillation counting; type: cell-based
Cannabinoid receptor 1 [6] = target: T3, Cannabinoid receptor 1 (Rattus norvegicus, UniProt P20272); assay: Displacement of [3H]SR141716A from rat CB1 receptor expressed in CHO-K1 cells by liquid scintillation spectrophotometry; type: cell-based
Cannabinoid receptor 2 [7] = target: T4, Cannabinoid receptor 2 (Rattus norvegicus, UniProt Q9QZN9); assay: Displacement of [3H]-CP55940 from rat CB2 receptor expressed in CHO-K1 cells by liquid scintillation spectrophotometry; type: cell-based
T4 sequence (Q9QZN9 whole entry): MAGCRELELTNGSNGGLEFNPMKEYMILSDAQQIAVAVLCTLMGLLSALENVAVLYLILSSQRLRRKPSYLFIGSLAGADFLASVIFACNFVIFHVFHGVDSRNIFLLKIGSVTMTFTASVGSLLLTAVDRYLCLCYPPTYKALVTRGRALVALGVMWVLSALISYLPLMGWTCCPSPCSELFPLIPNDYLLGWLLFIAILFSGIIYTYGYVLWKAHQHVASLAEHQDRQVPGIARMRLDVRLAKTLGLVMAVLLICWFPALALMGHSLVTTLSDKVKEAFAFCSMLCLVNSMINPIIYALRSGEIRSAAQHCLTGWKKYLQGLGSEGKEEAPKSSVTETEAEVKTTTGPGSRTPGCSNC

Rattus norvegicus [8] = assay: Antiallodynic activity in ip dosed rat spinal nerve ligation model of neuropathic pain assessed as attenuation of hind paw withdrawal latency; type: functional
Rattus norvegicus [9] = assay: Antiallodynic activity in ip dosed paclitaxel-induced neuropathic rat model assessed as attenuation of hind paw withdrawal latency after 30 mins; type: functional; settings: 0.5 h
Cannabinoid receptor 2 [10] = target: T4, Cannabinoid receptor 2; assay: Inverse agonist activity at rat CB2 receptor expressed in CHO-K1 cells assessed as inhibition of forskolin-induced cAMP accumulation; type: functional, cell-based
Cannabinoid receptor 1 [11] = target: T1, Cannabinoid receptor 1; assay: Agonist activity at human CB1 receptor expressed in human SK-N-MC cells at 1 uM by CRE-beta galactosidase reporter gene assay; type: functional, cell-based
Cannabinoid receptor 1 [12] = target: T3, Cannabinoid receptor 1; assay: Displacement of [3H]SR141716A from rat brain CB1 receptor by liquid scintillation spectrophotometry
Cannabinoid receptor 1 [13] = target: T3, Cannabinoid receptor 1; assay: Displacement of [3H]HU-243 from CB1 receptor of rat brain synaptosomal membranes
Cannabinoid receptor 1 [14] = target: T1, Cannabinoid receptor 1; assay: Displacement of [3H]-CP55940 from human CB1 receptor transfected in CHO cells after 30 mins by liquid scintillation spectrometry; type: cell-based
Cannabinoid receptor 2 [15] = target: T2, Cannabinoid receptor 2; assay: Displacement of [3H]-CP55940 from human CB2 receptor transfected in CHO cells after 30 mins by liquid scintillation spectrometry; type: cell-based
Cannabinoid receptor 1 [16] = target: T3, Cannabinoid receptor 1; assay: Displacement of [3H]-CP55940 from rat CB1 receptor by liquid scintillation spectrometry
Cannabinoid receptor 2 [17] = target: T4, Cannabinoid receptor 2; assay: Displacement of [3H]-CP55940 from rat CB2 receptor by liquid scintillation spectrometry
[18] = Cmax in Sprague-Dawley rat at 10 mg/kg, po by UV-HPLC analysis; type: ADME, organism-based; parameters: dose 10 mg/kg, route oral; settings: in vivo
[19] = Half life in Sprague-Dawley rat at 10 mg/kg, po by UV-HPLC analysis; type: ADME, organism-based; parameters: dose 10 mg/kg, route oral; settings: in vivo
[20] = AUC (0 to infinity) in Sprague-Dawley rat at 10 mg/kg, po by UV-HPLC analysis; type: ADME, organism-based; parameters: time infinity, dose 10 mg/kg, route oral; settings: plasma
Cannabinoid receptor 1 [21] = target: T1, Cannabinoid receptor 1; assay: Agonist activity at human CB1 receptor expressed in Saccharomyces cerevisiae MMY23 using fluorescein di-beta-D-glucopyranoside as substrate after 24 hrs by fluorescence-based assay
Cannabinoid receptor 2 [22] = target: T2, Cannabinoid receptor 2; assay: Agonist activity at human CB2 receptor expressed in Saccharomyces cerevisiae MMY23 using fluorescein di-beta-D-glucopyranoside as substrate after 24 hrs by fluorescence-based assay
Cannabinoid receptor 2 [23] = target: T4, Cannabinoid receptor 2; assay: Displacement of [3H]-CP55940 from CB2 receptor of rat spleen membranes by liquid scintillation counting in presence of serine protease inhibitor PMSF; type: tissue-based, Membrane
Cannabinoid receptor 1 [24] = target: T3, Cannabinoid receptor 1; assay: Displacement of [3H]-CP55940 from CB1 receptor of rat cerebellar membranes by liquid scintillation counting in presence of serine protease inhibitor PMSF; parameters: species or system Cerebellum, Membrane
Rattus norvegicus [25] = species on record: Rattus norvegicus; assay: Selectivity ratio of Ki for CB2 receptor of rat spleen membranes to Ki for CB1 receptor of rat cerebellar membranes; type: tissue-based
Mus musculus = assay: Antinociceptive activity against iv dosed ICR mouse measured at 20 mins by tail flick test; type: functional
Cannabinoid receptor 1 [26] = target: T1, Cannabinoid receptor 1; assay: Agonist activity at human CB1 receptor
Cannabinoid receptor 2 [27] = target: T2, Cannabinoid receptor 2; assay: Agonist activity at human CB2 receptor
Cannabinoid receptor 1 [28] = target: T1, Cannabinoid receptor 1; assay: Binding affinity to human CB1 receptor
Cannabinoid receptor 2 [29] = target: T2, Cannabinoid receptor 2; assay: Binding affinity to human CB2 receptor
Cannabinoid receptor 1 [30] = target: T1, Cannabinoid receptor 1; assay: Agonist activity at CB1 receptor (unknown origin) assessed as cAMP production; type: functional
Cannabinoid receptor 1 [31] = target: Cannabinoid receptor 1 (Mus musculus, UniProt P47746); assay: Agonist activity at CB1 receptor in Swiss Webster mouse vas deferens assessed as inhibition of electrically-stimulated muscle contraction
Cannabinoid receptor 2 [32] = target: T2, Cannabinoid receptor 2; assay: Displacement of [3H]-CP55940 from human CB2 receptor expressed in HEK293 cells after 90 mins by liquid scintillation counting; type: cell-based
Cannabinoid receptor 1 [33] = target: T1, Cannabinoid receptor 1; assay: Displacement of [3H]-CP55940 from human CB1 receptor expressed in HEK293 cells after 90 mins by liquid scintillation counting; type: cell-based

T1 sequence (P21554 whole entry): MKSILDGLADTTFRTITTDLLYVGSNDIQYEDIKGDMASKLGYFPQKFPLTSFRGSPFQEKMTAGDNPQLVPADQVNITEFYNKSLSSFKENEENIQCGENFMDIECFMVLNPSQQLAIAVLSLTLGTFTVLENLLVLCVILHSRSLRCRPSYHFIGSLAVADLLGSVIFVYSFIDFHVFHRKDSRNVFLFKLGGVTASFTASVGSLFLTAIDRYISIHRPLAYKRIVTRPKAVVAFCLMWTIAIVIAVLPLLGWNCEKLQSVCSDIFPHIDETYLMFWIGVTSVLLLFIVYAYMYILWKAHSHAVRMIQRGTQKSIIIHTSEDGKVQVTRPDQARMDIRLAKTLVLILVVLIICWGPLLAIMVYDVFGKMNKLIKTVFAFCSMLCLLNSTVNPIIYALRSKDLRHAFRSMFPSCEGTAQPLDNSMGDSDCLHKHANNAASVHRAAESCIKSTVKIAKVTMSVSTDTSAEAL
T3 sequence (P20272 whole entry): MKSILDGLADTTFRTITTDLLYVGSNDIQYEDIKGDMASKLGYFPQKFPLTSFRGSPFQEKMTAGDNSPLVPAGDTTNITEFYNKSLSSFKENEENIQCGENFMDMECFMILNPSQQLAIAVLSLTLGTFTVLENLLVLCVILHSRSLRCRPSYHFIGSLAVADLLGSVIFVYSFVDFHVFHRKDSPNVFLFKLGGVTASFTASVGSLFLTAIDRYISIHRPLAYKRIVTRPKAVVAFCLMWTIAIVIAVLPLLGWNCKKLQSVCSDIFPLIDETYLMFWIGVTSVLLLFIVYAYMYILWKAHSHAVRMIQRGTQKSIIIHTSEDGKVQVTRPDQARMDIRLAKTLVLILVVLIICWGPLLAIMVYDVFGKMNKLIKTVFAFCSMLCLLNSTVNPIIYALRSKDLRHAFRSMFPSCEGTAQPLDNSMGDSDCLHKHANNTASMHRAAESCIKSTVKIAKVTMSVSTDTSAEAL
T2 sequence (P34972 whole entry): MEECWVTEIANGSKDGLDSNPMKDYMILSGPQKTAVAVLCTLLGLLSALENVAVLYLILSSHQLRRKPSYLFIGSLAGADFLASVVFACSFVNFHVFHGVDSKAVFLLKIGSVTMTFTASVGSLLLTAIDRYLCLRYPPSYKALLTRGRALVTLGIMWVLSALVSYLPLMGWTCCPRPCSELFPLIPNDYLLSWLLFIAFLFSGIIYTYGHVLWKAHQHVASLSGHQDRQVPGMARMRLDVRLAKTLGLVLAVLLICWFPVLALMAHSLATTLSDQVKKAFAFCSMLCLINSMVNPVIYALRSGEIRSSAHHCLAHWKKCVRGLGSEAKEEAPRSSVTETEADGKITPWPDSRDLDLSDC
Sequence of Cannabinoid receptor 1 (Mus musculus, UniProt P47746) (P47746 whole entry): as the sequence (P20272 whole entry) above, with E95D counted along it

For CC(NC(=O)c1nc(N2CCOCC2)n2ccccc12)C(C)(C)C (configuration not stated), the EC50 (Cannabinoid receptor 1 [1]) was over 17000 nM, the EC50 (Cannabinoid receptor 2 [2]) was 5.4 nM and the Emax (Cannabinoid receptor 2 [3]) was 99.5%. For the same compound, the Ratio Ki (Homo sapiens) was over 3100.
Work on O=C(NC1(c2ccccn2)CCC1)C1=NN(c2c[n+]([O-])ccn2)C2C1C[C@@H]1C[C@H]21 (some centres not stated) yielded an EC50 (Cannabinoid receptor 2 [4]) of 32 nM and an IC50 (Cannabinoid receptor 1 [5]; read-out: EC50 (the source's name)) of over 50000 nM.
CC1(Cc2ccccc2)COc2cc(C(=O)N3CCCCC3)ccc21 (configuration not stated) gave a Ki (Cannabinoid receptor 1 [6]) of 2560 nM, a Ki (Cannabinoid receptor 2 [7]) of 238 nM and a Ratio Ki (Homo sapiens) of over 23. The ED50 (Rattus norvegicus [8]) was 7.5 mg/kg, the Ki (Cannabinoid receptor 1 [5]) was over 10000 nM and the ED50 (Rattus norvegicus [9]) was 24 mg/kg.
CN1CCCC[C@@H]1Cn1cc(C(=O)c2cc([N+](=O)[O-])ccc2I)c2ccccc21 gave an EC50 (Cannabinoid receptor 2 [10]) of 315 nM.
In the case of O=C(NCC12CC3CC(CC(C3)C1)C2)c1nn(C2CCCCC2)c2c1CCCCCC2, the Activity (Cannabinoid receptor 1 [11]) is reported as 71%.
CC(=O)Oc1cc(O[C@H](C)CCCc2ccccc2)cc2c1[C@@H]1C[C@H](O)CC[C@H]1[C@H](C)N2 [LEVONANTRADOL] showed a Ki (Cannabinoid receptor 1 [12]) of 2.9 nM.
In the case of CCCCCCC(C)(C)c1cc(OC)c([C@H]2C=C(CO)[C@H]3C[C@@H]2C3(C)C)c(OC)c1, the Ki (Cannabinoid receptor 1 [13]) is reported as over 10000 nM.
With CC1=CC[C@@H]2[C@@H](C1)c1c(OC(=O)CCCN3CCOCC3)cc(C(C)(C)CCCCC#N)cc1OC2(C)C the Ratio Ki (Homo sapiens) was 0.36, the Ki (Cannabinoid receptor 1 [14]) was 4 nM and the Ki (Cannabinoid receptor 2 [15]) was 11 nM.
In the case of CCCCCCC(C)(C)c1cc(O)c2c(c1)OC(C)(C)[C@H]1CC=C(CO)C[C@H]21 [DEXANABINOL], the Ki (Cannabinoid receptor 1 [16]) is reported as 1990 nM and the Ki (Cannabinoid receptor 2 [17]) is reported as over 10000 nM.
With CC(C)(C)NC(=O)c1nn(-c2ccc(Cl)cc2)c2c1C1CCC2C1 (configuration not stated) the Cmax [18] was 131 ng/mL, the half-life [19] was 7.3 h and the AUC(0-inf) [20] was 1550 ng·h/mL.
CC(C)(CO)NC(=O)c1nn(-c2ccc(Cl)cc2)c2c1C1CCC2C1 (configuration not stated) showed a Cmax [18] of 1950 ng/mL, a half-life [19] of 4.8 h and an AUC(0-inf) [20] of 12000 ng·h/mL.
O=C(NCc1ccncc1)c1cnc(Nc2cccc(Cl)c2)nc1C(F)(F)F gave an EC50 (Cannabinoid receptor 1 [21]) of over 30 nM and an EC50 (Cannabinoid receptor 2 [22]) of 50 nM.
For CCCCC/C=C\C/C=C\C/C=C\C/C=C\CCCC(=O)NCCCl, the Ki (Cannabinoid receptor 2 [23]) was over 2000 nM, the Ki (Cannabinoid receptor 1 [24]) was 1.4 nM and the Ratio Ki (Rattus norvegicus [25]) was over 1430.
Work on CCCCCc1cc(O)c2c(c1)OC(C)(C)[C@@H]1CCC(C)=C[C@@H]21 [DRONABINOL] yielded an ED50 (Mus musculus) of 0.02 mg/kg.
With COc1ccc2c(c1)c(CCN1CCOCC1)c(C)n2C(=O)c1cccc(Cl)c1Cl the Ki (Cannabinoid receptor 1 [26]) was 4800 nM and the Ki (Cannabinoid receptor 2 [27]) was 3.8 nM.
With CCCCCCC(C)(C)c1cc(O)c2c(c1)OC(C)(C)[C@@H]1CC=C(C(=O)O)C[C@@H]21 [LENABASUM] the Ki (Cannabinoid receptor 1 [28]) was 32.3 nM, the Ratio Ki (Homo sapiens) was 0.19 and the Ki (Cannabinoid receptor 2 [29]) was 170 nM. It also gave an EC50 (Cannabinoid receptor 1 [30]) of 927 nM.
Compound CN(C)CCNc1cnn(C2CC(C)(C)CC(C)(C)C2)c(=O)c1Br has an EC50 (Cannabinoid receptor 1 [31]) of 820 nM, a Ki (Cannabinoid receptor 2 [32]) of 42 nM and a Ki (Cannabinoid receptor 1 [33]) of 7410 nM.
